Source: PubChem BioAssay (NCI)
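48-hour exposure; five concentrations; linearly interpolated endpoints. GI50: concentration for 50% inhibition of growth. TGI: concentration producing complete growth inhibition.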 Where a SMILES comes first, the peptide text is derived from it. [ ]: non-standard residue; d: D form. The star is where a group is joined. NMeAc5c = CNC1(C(=O)O)CCCC1; Boc = CC(C)(C)OC(=O)*; OBn = c1ccc(CO*)cc1

Tested on: MOLT-4 leukemia
Experiment: NCI anticancer screen, dose series, 48 h

`O=C1/C(=C/c2ccccc2)N=C2Sc3c(nc[nH]c3=O)N12` and `N#Cc1c(N2CCCC2)ncn(-c2ccccc2)c1=O` cannot be ordered by TGI: > 100 µM for the first, > 100 µM for the second.

Compared with `C=CC1(C)CCC2C(=CCC3C2(C)CC(O)C(O)C3(C)COC2OC(C(=O)O)C(O)C(O)C2O)C1` (stereo unspecified) (tested in a mixture with another compound), `CC[C@@H]1CC[C@@H]2[C@H](CC[C@]3(C)[C@@H](OC(C)=O)CC[C@@H]23)[C@H]1COC(C)=O` is lower in TGI: > 100 µM for the first, 37 µM for the second.

First: O=[N+]([O-])c1ccc2c(c1)/C(=N/N=C1c3ccccc3Cc3ccccc31)c1cc([N+](=O)[O-])cc([N+](=O)[O-])c1-2
Second: O=[N+]([O-])c1ccc2c(c1)c(OCc1ccccc1)nn2Cc1ccccc1
The TGI of the first is lower: 5.99 µM for the first, > 100 µM for the second.

Compared with `CN(C(=O)C(Cc1ccccc1)NC(=O)OC(C)(C)C)C1(C(=O)NC(Cc2ccccc2)C(=O)OCc2ccccc2)CCCC1` (stereo not drawn) (Boc-Phe-[NMeAc5c]-Phe-OBn; configuration not given here), `COC(=O)C([C@H](NC1(c2ccccc2)c2ccccc2-c2ccccc21)C(=O)OC)N(NC(=O)OCc1ccccc1)C(=O)OCc1ccccc1` (mixture of isomers) is higher in TGI: 84.2 µM for the first, > 100 µM for the second.

`Cc1ccc([N+](=O)[O-])cc1NC1=NCCO1` and `COC(=O)c1cc(=O)nc2sc3cccc(C)c3n12` cannot be ordered by TGI: > 100 µM for the first, > 100 µM for the second.

First: CC(C)=CCc1c2c(c3occ(-c4ccc(O)cc4)c(=O)c3c1O)CC(C(C)(C)O)O2 (stereo unspecified)
Second: Cc1ccccc1C(=O)N1CCc2c([nH]c3ccccc23)C1
The TGI of the first is 2.5-fold lower: 31.8 µM for the first, 80 µM for the second.

`CCOC(=O)C(SCCO)C(C(=O)OCC)n1cnc2c(=O)[nH]c(NC(C)=O)nc21` (stereo unspecified) and `CCOC(=O)/C=C/CC(C)(C)CCOC(C)=O` cannot be ordered by TGI: > 100 µM for the first, > 10 µM for the second.

`C#CCNC(CS)C(=O)O` (stereo unspecified) and `Cc1ccc(N=NC(=Nc2ccccc2)c2ccc(N(CCC#N)CCC#N)cc2)cc1` cannot be ordered by TGI: > 100 µM for the first, > 100 µM for the second.

`NS(=O)(=O)c1ccc2c(c1)OCCOCCOCCOCCO2` was tested, and the TGI was > 100 µM.

Tested on: SNB-19 CNS
Experiment: NCI anticancer screen, dose series, 48 h

First: NC(N)=N/N=C/c1c(-c2ccc(N)cc2)nc2sccn12
Second: COc1cc(Br)cc2cc(-c3cn4ccsc4n3)c(=O)oc12
The TGI of the first is lower: 69.1 µM for the first, > 100 µM for the second.

`CCCCCCc1cc2cc(-c3csc(CC#N)n3)c(=O)oc2cc1O` and `COC(=O)c1cc(=O)nc2sc3cccc(C)c3n12` cannot be ordered by TGI: > 100 µM for the first, > 100 µM for the second.

`C=C1C(=O)O[C@@H]2C(=O)[C@@H](C)CCC/C(C)=C/CC[C@@]3(C)O[C@@H]3C[C@@H]12` and `C=CC1(C)CCC2C(=CCC3C2(C)CC(O)C(O)C3(C)COC2OC(C(=O)O)C(O)C(O)C2O)C1` (stereo unspecified) (tested in a mixture with another compound) cannot be ordered by TGI: > 100 µM for the first, > 100 µM for the second.

`ClCCN1CCC2(CC1)SSC1(CCN(CCCl)CC1)S2` and `CN1CCN(C2=NCCO2)CC1` cannot be ordered by TGI: > 100 µM for the first, > 100 µM for the second.

`O=c1c2cc([N+](=O)[O-])cnc2sn1-c1ccc([N+](=O)[O-])cc1` and `O=[N+]([O-])c1ccc2c(c1)c(OCc1ccccc1)nn2Cc1ccccc1` cannot be ordered by TGI: > 100 µM for the first, > 100 µM for the second.

`COC(=O)C1SC(SC)=NC12c1ccccc1Nc1ccccc12` (stereo unspecified) and `S=C1Nc2ccccc2SC1c1ccccc1` (stereo unspecified) cannot be ordered by TGI: > 100 µM for the first, > 100 µM for the second.

First: COc1ccc2cc(NC(=O)N/N=C\c3ccc([N+](=O)[O-])cc3)ccc2c1
Second: O=[N+]([O-])c1ccc2c(c1)/C(=N/N=C1c3ccccc3Cc3ccccc31)c1cc([N+](=O)[O-])cc([N+](=O)[O-])c1-2
The TGI of the first is 2.1-fold higher: 47.9 µM for the first, 23.3 µM for the second.

Going from `CCOC(=O)C1(C/C=C/CBr)Cc2ccccc2C1=O` (stereo unspecified) to `COC(=O)c1ccccc1CC1Cc2ccc3c(c2C1=O)CCCC3` (stereo unspecified), the TGI rises from 37.2 µM to > 100 µM.

Going from `CN1CCc2cc(N)cc3c2C1Cc1ccc(O)c(O)c1-3` (stereo unspecified) to `CC(C)=CCc1c2c(c3occ(-c4ccc(O)cc4)c(=O)c3c1O)CC(C(C)(C)O)O2` (stereo unspecified), the TGI falls from > 100 µM to 31.3 µM.

First: CCCN(C(=O)c1ccccc1)C(C#N)c1ccc(C(C#N)N(CCC)C(=O)c2ccccc2)cc1 (stereo unspecified)
Second: Cc1ccc(N=NC(=Nc2ccccc2)c2ccc(N(CCC#N)CCC#N)cc2)cc1
The TGI of the first is lower: 74.9 µM for the first, > 100 µM for the second.

`c1ccc(N=c2sc3ccccc3nc2Nc2ccccc2)cc1` and `Cc1ccccc1C(=O)N1CCc2c([nH]c3ccccc23)C1` cannot be ordered by TGI: > 100 µM for the first, > 100 µM for the second.

`CCOC(=O)c1csc(NC(=O)CN2CCOCC2)n1` and `CCOC(=O)C(SCCO)C(C(=O)OCC)n1cnc2c(=O)[nH]c(NC(C)=O)nc21` (stereo unspecified) cannot be ordered by TGI: > 100 µM for the first, > 100 µM for the second.

`O=C1/C(=C/c2ccccc2)N=C2Sc3c(nc[nH]c3=O)N12` and `N#Cc1c(N2CCCC2)ncn(-c2ccccc2)c1=O` cannot be ordered by TGI: > 100 µM for the first, > 100 µM for the second.

`CN(C(=O)C(Cc1ccccc1)NC(=O)OC(C)(C)C)C1(C(=O)NC(Cc2ccccc2)C(=O)OCc2ccccc2)CCCC1` (stereo not drawn) (Boc-Phe-[NMeAc5c]-Phe-OBn; configuration not given here) and `COC(=O)C([C@H](NC1(c2ccccc2)c2ccccc2-c2ccccc21)C(=O)OC)N(NC(=O)OCc1ccccc1)C(=O)OCc1ccccc1` (mixture of isomers) cannot be ordered by TGI: > 100 µM for the first, > 100 µM for the second.

`Cc1ccc([N+](=O)[O-])cc1NC1=NCCO1` and `NS(=O)(=O)c1ccc2c(c1)OCCOCCOCCOCCO2` cannot be ordered by TGI: > 100 µM for the first, > 100 µM for the second.

`C#CCNC(CS)C(=O)O` (stereo unspecified) and `CCOC(=O)/C=C/CC(C)(C)CCOC(C)=O` cannot be ordered by TGI: > 100 µM for the first, > 10 µM for the second.

In the case of `CC[C@@H]1CC[C@@H]2[C@H](CC[C@]3(C)[C@@H](OC(C)=O)CC[C@@H]23)[C@H]1COC(C)=O`, the TGI is reported as > 100 µM.

In the case of `O=C(NC(=O)c1ccccc1[N+](=O)[O-])Nc1ccc(Oc2ncc(Br)cn2)c(Cl)c1`, the GI50 is reported as 0.0693 µM.

Tested on: CCRF-CEM leukemia
Experiment: NCI anticancer screen, dose series, 48 h

`NC(N)=N/N=C/c1c(-c2ccc(N)cc2)nc2sccn12` and `COc1cc(Br)cc2cc(-c3cn4ccsc4n3)c(=O)oc12` cannot be ordered by TGI: > 100 µM for the first, > 100 µM for the second.

`CCCCCCc1cc2cc(-c3csc(CC#N)n3)c(=O)oc2cc1O` and `COC(=O)c1cc(=O)nc2sc3cccc(C)c3n12` cannot be ordered by TGI: > 100 µM for the first, > 100 µM for the second.

Going from `C=C1C(=O)O[C@@H]2C(=O)[C@@H](C)CCC/C(C)=C/CC[C@@]3(C)O[C@@H]3C[C@@H]12` to `C=CC1(C)CCC2C(=CCC3C2(C)CC(O)C(O)C3(C)COC2OC(C(=O)O)C(O)C(O)C2O)C1` (stereo unspecified) (tested in a mixture with another compound), the TGI rises from 30.2 µM to > 100 µM.

Compared with `ClCCN1CCC2(CC1)SSC1(CCN(CCCl)CC1)S2`, `CN1CCN(C2=NCCO2)CC1` is higher in TGI: 55.6 µM for the first, > 100 µM for the second.

First: O=c1c2cc([N+](=O)[O-])cnc2sn1-c1ccc([N+](=O)[O-])cc1
Second: O=[N+]([O-])c1ccc2c(c1)c(OCc1ccccc1)nn2Cc1ccccc1
The TGI of the first is lower: 82.2 µM for the first, > 100 µM for the second.

`COC(=O)C1SC(SC)=NC12c1ccccc1Nc1ccccc12` (stereo unspecified) and `S=C1Nc2ccccc2SC1c1ccccc1` (stereo unspecified) cannot be ordered by TGI: > 100 µM for the first, > 100 µM for the second.

First: COc1ccc2cc(NC(=O)N/N=C\c3ccc([N+](=O)[O-])cc3)ccc2c1
Second: O=[N+]([O-])c1ccc2c(c1)/C(=N/N=C1c3ccccc3Cc3ccccc31)c1cc([N+](=O)[O-])cc([N+](=O)[O-])c1-2
The TGI of the first is higher: > 100 µM for the first, 5.55 µM for the second.

First: CCOC(=O)C1(C/C=C/CBr)Cc2ccccc2C1=O (stereo unspecified)
Second: COC(=O)c1ccccc1CC1Cc2ccc3c(c2C1=O)CCCC3 (stereo unspecified)
The TGI of the first is lower: 5.36 µM for the first, > 86.5 µM for the second.

Compared with `CN1CCc2cc(N)cc3c2C1Cc1ccc(O)c(O)c1-3` (stereo unspecified), `CC(C)=CCc1c2c(c3occ(-c4ccc(O)cc4)c(=O)c3c1O)CC(C(C)(C)O)O2` (stereo unspecified) is higher in TGI: 37.2 µM for the first, > 100 µM for the second.

`CCCN(C(=O)c1ccccc1)C(C#N)c1ccc(C(C#N)N(CCC)C(=O)c2ccccc2)cc1` (stereo unspecified) and `Cc1ccc(N=NC(=Nc2ccccc2)c2ccc(N(CCC#N)CCC#N)cc2)cc1` cannot be ordered by TGI: > 100 µM for the first, > 100 µM for the second.

Compared with `c1ccc(N=c2sc3ccccc3nc2Nc2ccccc2)cc1`, `Cc1ccccc1C(=O)N1CCc2c([nH]c3ccccc23)C1` is lower in TGI: > 100 µM for the first, 74 µM for the second.

`CCOC(=O)c1csc(NC(=O)CN2CCOCC2)n1` and `CCOC(=O)C(SCCO)C(C(=O)OCC)n1cnc2c(=O)[nH]c(NC(C)=O)nc21` (stereo unspecified) cannot be ordered by TGI: > 100 µM for the first, > 100 µM for the second.

`O=C1/C(=C/c2ccccc2)N=C2Sc3c(nc[nH]c3=O)N12` and `N#Cc1c(N2CCCC2)ncn(-c2ccccc2)c1=O` cannot be ordered by TGI: > 100 µM for the first, > 100 µM for the second.

`CN(C(=O)C(Cc1ccccc1)NC(=O)OC(C)(C)C)C1(C(=O)NC(Cc2ccccc2)C(=O)OCc2ccccc2)CCCC1` (stereo not drawn) (Boc-Phe-[NMeAc5c]-Phe-OBn; configuration not given here) and `COC(=O)C([C@H](NC1(c2ccccc2)c2ccccc2-c2ccccc21)C(=O)OC)N(NC(=O)OCc1ccccc1)C(=O)OCc1ccccc1` (mixture of isomers) cannot be ordered by TGI: > 100 µM for the first, > 100 µM for the second.

`Cc1ccc([N+](=O)[O-])cc1NC1=NCCO1` and `NS(=O)(=O)c1ccc2c(c1)OCCOCCOCCOCCO2` cannot be ordered by TGI: > 100 µM for the first, > 100 µM for the second.

`C#CCNC(CS)C(=O)O` (stereo unspecified) and `CCOC(=O)/C=C/CC(C)(C)CCOC(C)=O` cannot be ordered by TGI: > 100 µM for the first, > 10 µM for the second.

`CC[C@@H]1CC[C@@H]2[C@H](CC[C@]3(C)[C@@H](OC(C)=O)CC[C@@H]23)[C@H]1COC(C)=O` was tested, and the TGI was 41.2 µM.

In the case of `O=C(NC(=O)c1ccccc1[N+](=O)[O-])Nc1ccc(Oc2ncc(Br)cn2)c(Cl)c1`, the GI50 is reported as < 0.0194 µM.

Tested on: RPMI-8226 leukemia
Experiment: NCI anticancer screen, dose series, 48 h

`NC(N)=N/N=C/c1c(-c2ccc(N)cc2)nc2sccn12` gave a TGI of 99.2 µM.
